Results: US10851129B2, “Composition, crocins active site, and uses thereof” (Jinan University, priority 2016, dated 2020)

Test system: SH-SY5Y nerve cells
Experiment: Neuroprotection in SH-SY5Y cell damage model induced by L-glutamic acid (MTT)
Type: cell-based
Conditions: L-glutamic acid 160 mM, 24 h, effective rate %
Method: SH-SY5Y nerve cells were cultured in DMEM medium (containing 5% fetal calf serum by volume fraction) which were placed in an incubator containing 5% CO2 under 37° C. They were subcultured once every 3-4 days. Cells in logarithmic phase were used for test
SH-SY5Y cells were inoculated in a 96-well plate at a concentration of 5×10^3 and continued to culture for 24 h. […] 3 parallel wells were arranged for each concentration. They were continued to culture for 24 h. 24 h later, the supernatant was pipetted out and discarded. 100 μL MTT (0.5 mg/mL) was added into each well. They were further incubated for 4 h. Then the supernatant was pipetted out and discarded. 150 μL DMSO was added into each well. They were vibrated for 10 min. A wavelength of 570 nm was selected. The absorbance value was measured on a microplate reader^[13]. (effective rate %=(ODdrug−ODmodel)/(ODcontrol−ODmodel)*100).

SMILES	Neuroprotective effective rate (recovery of viability relative to glutamate model) (drug 10^−5 moL/L) [%]	Neuroprotective effective rate (recovery of viability relative to glutamate model) (drug 10^−6 moL/L) [%]	Neuroprotective effective rate (recovery of viability relative to glutamate model) (drug 10^−7 moL/L) [%]
CC(/C=C/C=C(\C)C(=O)O[C@@H]1OC(CO)[C@@H](O)C(O)C1O)=C\C=C\C=C(C)\C=C\C=C(/C)C(=O)O[C@@H]1OC(CO)[C@@H](O)C(O)C1O (stereo partly drawn) [Compound 3, crocetin di-β-D-glucopyranoside]	0.00 ± 0.00	0.00 ± 0.00	0.00 ± 0.00
CC(/C=C/C=C(\C)C(=O)O)=C\C=C\C=C(C)\C=C\C=C(/C)C(=O)O[C@@H]1OC(CO)[C@@H](O)C(O)C1O (stereo partly drawn) [Compound 9, crocetin mono-β-D-glucopyranoside]	0.00 ± 0.00	0.00 ± 0.00	0.00 ± 0.00
CC(/C=C/C=C(\C)C(=O)O[C@@H]1OC(CO)[C@@H](O)C(O)C1O)=C\C=C\C=C(C)\C=C\C=C(/C)C(=O)O[C@@H]1OC(CO[C@@H]2OC(CO)[C@@H](O)C(O)C2O)[C@@H](O)C(O)C1O (stereo partly drawn) [Compound 2, crocetin-β-D-glucopyranosyl-β-D-gentiobioside]	0.00 ± 0.00	0.00 ± 0.00	0.00 ± 0.00
CC(/C=C/C=C(\C)C(=O)O[C@@H]1O[C@H](CO[C@@H]2O[C@H](CO)[C@@H](O)[C@H](O)[C@H]2O)[C@@H](O)[C@H](O)[C@H]1O)=C\C=C\C=C(C)\C=C\C=C(/C)C(=O)O[C@@H]1[C@H](O)C[C@@](O)(C(=O)O)C[C@H]1OC(=O)/C=C/c1ccc(O)c(O)c1 [Compound 5, neocrocin B]	40.03 ± 3.91	27.63 ± 5.36	9.89 ± 2.93
